Literature values as cited in patent US12364687B2 (BIOHAVEN PHARMACEUTICAL HOLDING COMPANY LTD., priority 2018, dated 2025).

Conditions: taken with meals

Compound: Nc1nc2ccc(OC(F)(F)F)cc2s1 [riluzole, 6-(trifluoromethoxy)benzothiazol-2-amine]
- food effect on exposure: reduced exposure when taken with meals
